Experimental data as given in patent US4360663A, “Steroid hormone-antitumor derivatives” (Kureha Kagaku Kogyo Kabushiki Kaisha, priority 1978, dated 1982).

Key:
[1] = Acute toxicity (LD50), ICR-JCL female mice, Litchfield-Wilcoxon graph method; details: mouse, in vivo, one dose, in olive oil, after 7 days
Description: In the measurement of LD50, eight ICR-JCL female mice (5 week age) were used as one group to breed in a transparent polycage, and each drug was dissolved in olive oil and administrated by routes of intraperitoneal injection (i.p.), oral administration (p.o.) and subcutaneous injection (s.c.), to the mice at one dose and then, their value of LD50 by Litchfield-Wilcoxon graph method is obtained after 7 days.
(§1) The tests (1), (2), (3) for various active ingredients were carried out.

[2] = system: estrogen sensitive cells (uterus of rabbit); experiment: Binding function to estrogen sensitive cells (3H-estradiol replacement, uterus of rabbit); details: 10 nM sample; smaller value = higher binding; 54-56% at 0 nM
[3] = system: estrogen sensitive cells (uterus of rabbit); experiment: as above; details: 100 nM sample; smaller value = higher binding; 54-56% at 0 nM
Description: Binding function of the active ingredients to estrogen sensitive cells.
The binding function of the active ingredient to tumor cells was tested by the method described in Biochemical Experiment text Hormone (I) (Nippon Seikagaku) (Tokyo Kagakudojin page 217-252, April 25, 1977).
Estradiol labelled by tritium (^3 H) was incubated with uterus of rabbit to bind it and then, the sample was added to the system to measure the amount of free ^3 H-estradiol which was replaced by the added estradiol. The results are shown as the binding ^3 H-estradiol(%) in the cases adding […] of the sample.

[4] = system: human breast cancer cells having steroid hormone receptor; experiment: Antitumor test (in vivo), human breast cancer cells implanted in BALB/C-nu/nu mice; details: tumors excised day 25
Description: Pieces of human breast cancer cells having steroid hormone receptor was subcutaneously implanted under the arm of mice (BALB/C-nu/nu) (5 week age) to form solid tumors. After the solid tumors were established, each dispersion or solution of the active ingredient in olive oil was administered by oral dose or intraperitoneal injection each other day for 10 times or every days for 20 times. Twenty five days from the initial administration, the tumors were excised. Efficiency of inhibition of tumor proliferation was measured from (A) each average weight of excised tumors for 10 mice (the active ingredient was administrated) and (B) each average weight of excised tumors for 10 control mice. [formula]
as §1

Row | Compound | LD50 at 168 h ([1]; ip) | LD50 at 168 h ([1]; po) | Binding 3H-estradiol [2] | Binding 3H-estradiol [3] | Inhibitory effect of tumor, efficiency ([4]; p.o., 10 mg/kg) | further results
1 | CO[C@H]1O[C@H](C(=O)OCC(=O)O[C@H]2CC[C@H]3[C@@H]4CCc5cc(O)ccc5[C@H]4CC[C@]23C)[C@@H](O)[C@H](O)[C@H]1NC(=O)N(CCCl)N=O [compound 2] | > 180 mg/kg | > 1000 mg/kg | 45% | 30% | 79% | Inhibitory effect of tumor, efficiency ([4]; i.p., 1 mg/kg): 90%; Inhibitory effect of tumor, efficiency ([4]; i.p., 3 mg/kg): 92%; Inhibitory effect of tumor, efficiency ([4]; p.o., 40 mg/kg): 82%
2 | CN(Cc1cnc2nc(N)nc(N)c2n1)c1ccc(C(=O)N[C@@H](CCC(=O)OCC(=O)O[C@H]2CC[C@H]3[C@@H]4CCc5cc(O)ccc5[C@H]4CC[C@]23C)C(=O)OCC(=O)O[C@H]2CC[C@H]3[C@@H]4CCc5cc(O)ccc5[C@H]4CC[C@]23C)cc1 [Test No. 9 (Table 17), bis 3-hydroxy-1,3,5(10)-estratriene-17β-oxycarbonylmethyl-4-amino-N^10-methylpteroylglutamate] | > 235 mg/kg | > 3000 mg/kg | 35% | 19% | 80% | Inhibitory effect of tumor, efficiency ([4]; i.p., 5 mg/kg): 98%; Inhibitory effect of tumor, efficiency ([4]; p.o., 50 mg/kg): 93%
3 | C[C@]12CC[C@@H]3c4ccc(O)cc4CC[C@H]3[C@@H]1CC[C@@H]2O [compound 1] | – | – | 36% | 16% | – | –
4 | C[C@]12CC[C@@H]3c4ccc(O)cc4CC[C@H]3[C@@H]1CC[C@@H]2OC(=O)Cn1cc(F)c(=O)[nH]c1=O [Test No. 7 (Table 17), 3-hydroxy-1,3,5(10)-estratriene-17β-[5-fluoro-2,4-dioxo-pyrimidin-1-yl]acetate] | > 605 mg/kg | > 2000 mg/kg | 36% | 25% | – | Inhibitory effect of tumor, efficiency ([4]; i.p., 10 mg/kg): 90%; Inhibitory effect of tumor, efficiency ([4]; i.p., 20 mg/kg): 100%
5 | COc1cccc2c1C(=O)c1c(O)c3c(c(O)c1C2=O)C[C@@](O)(C(C)=O)C[C@@H]3O[C@H]1C[C@H](N)[C@H](O)[C@H](C)O1 [compound 4] | – | – | 56% | 56% | – | –
6 | 3-hydroxy-1,3,5(10)-estratriene-17β-[methyl-2-{N'-(2-chloroethyl)-N'-nitrosoureido}-2-deoxy-α-D-glucuronoyloxy]acetate [Test No. 2 (Table 17)] | – | – | 37% | 17% | – | –
7 | CO[C@H]1O[C@H](CO)[C@@H](O)[C@H](O)[C@H]1NC(=O)N(CCCl)N=O [compound 3] | – | – | 55% | 55% | – | –
8 | CN(N=O)C(=O)N[C@H]1C(O)O[C@H](C(=O)OCC(=O)O[C@H]2CC[C@H]3[C@@H]4CCc5cc(O)ccc5[C@H]4CC[C@]23C)[C@@H](O)[C@@H]1O (stereo partly drawn) [Test No. 6 (Table 17), 3-hydroxy-1,3,5(10)-estratriene-17β-[2-(N'-methyl-N'-nitrosoureido)-2-deoxy-D-glucuronoyloxy]acetate] | > 660 mg/kg | > 1000 mg/kg | 28% | 16% | 77% | Inhibitory effect of tumor, efficiency ([4]; i.p., 5 mg/kg): 92%; Inhibitory effect of tumor, efficiency ([4]; i.p., 10 mg/kg): 97%; Inhibitory effect of tumor, efficiency ([4]; p.o., 40 mg/kg): 84%
9 | O=c1[nH]cc(F)c(=O)[nH]1 [compound 8] | – | – | 55% | 53% | – | –
10 | C[C@]12CC[C@@H]3c4ccc(OC(=O)c5ccccc5)cc4CC[C@H]3[C@@H]1CC[C@@H]2OC(=O)Cn1cc(F)c(=O)[nH]c1=O [Test No. 8 (Table 18), 3-benzoyloxy-1,3,5(10)-estratriene-17β-[5-fluoro-2,4-dioxo-pyrimidin-1-yl]acetate] | 680 mg/kg | > 3000 mg/kg | – | – | – | Inhibitory effect of tumor, efficiency ([4]; i.p., 15 mg/kg): 83%; Inhibitory effect of tumor, efficiency ([4]; i.p., 30 mg/kg): 90%; Inhibitory effect of tumor, efficiency ([4]; p.o., 15 mg/kg): 70%; Inhibitory effect of tumor, efficiency ([4]; p.o., 30 mg/kg): 81%
